We go through 62 compounds from PubChem BioAssay AID1845228.

For the series the following is noted: pampa; 60.0 min; 50.0 µM.
In the case of `Cc1ccc(-c2csc3ncnc(Sc4nnnn4C)c23)cc1`, the Papp (as a rule, a coefficient for how fast a substance crosses the barrier) is greater than 300 ×10⁻⁶ cm/s.

The compound `CC/C=C(\C(=O)N[C@@H]1C(=O)N2C(C(=O)OCOC(=O)C(C)(C)C)=C(COC(N)=O)CS[C@H]12)c1csc(N)n1` gave a Papp of less than 1 ×10⁻⁶ cm/s.

With `C[C@H](Nc1nc(N[C@H](C)C(F)(F)F)nc(-c2cccc(Cl)n2)n1)C(F)(F)F`, the Papp is 122 ×10⁻⁶ cm/s.

With `C[N+](C)([O-])CCNc1ccc(NCC[N+](C)(C)[O-])c2c1C(=O)c1c(O)ccc(O)c1C2=O`, the apparent permeability coefficient (Papp) is 40 ×10⁻⁶ cm/s.

Turning to `O=C(N[C@@H](CO)[C@H](O)c1ccc([N+](=O)[O-])cc1)C(Cl)Cl`, the apparent permeability coefficient (Papp) is 3 ×10⁻⁶ cm/s.

In turn, `CC(=O)OCC1=C(C(=O)O)N2C(=O)C(NC(=O)Cc3cccs3)C2SC1` (configuration not stated) came in with an apparent permeability coefficient (Papp) of 2 ×10⁻⁶ cm/s.

For `CC(C)[C@]12O[C@H]1[C@@H]1O[C@]13[C@]1(O[C@H]1C[C@H]1C4=C(CC[C@@]13C)C(=O)OC4)[C@@H]2O`, the Papp was less than 1 ×10⁻⁶ cm/s.

Compound `Cn1cc(C2=C(c3coc4ccccc34)C(=O)NC2=O)c2cc(Br)ccc21` displayed an apparent permeability (Papp) of 3 ×10⁻⁶ cm/s.

`Cc1cccc(-c2csc3ncnc(Sc4nnnn4C)c23)c1` registered a Papp of 225 ×10⁻⁶ cm/s.

In turn, `COc1c(C)c2c(c(O)c1C/C=C(\C)CCC(=O)O)C(=O)OC2` yielded a Papp of less than 1 ×10⁻⁶ cm/s.

Compound `O=C1CCCC2=C1C(c1[nH]ncc1Cl)N=C(Nc1nc3ccccc3o1)N2` (configuration not stated) yielded an apparent permeability (Papp) of 275 ×10⁻⁶ cm/s.

Compound `O=C(O)[C@H]1O[C@@H](Oc2cc3oc(-c4ccc(O)cc4)cc(=O)c3c(O)c2O)[C@H](O)[C@@H](O)[C@@H]1O` displayed a Papp of less than 1 ×10⁻⁶ cm/s.

For `Cc1[nH]c2ccccc2c1CCNCc1ccc(C=CC(=O)NO)cc1`, the Papp was less than 1 ×10⁻⁶ cm/s.

On to `COc1cc(-c2nc(Cn3nnc(C(=O)Nc4cc(C)cc(C)c4)c3C)c(C)o2)cc(OC)c1OC`, for which the Papp was 17 ×10⁻⁶ cm/s.

`O=C(O)c1cc2ccccc2c(Cc2c(O)c(C(=O)O)cc3ccccc23)c1O` showed an apparent permeability coefficient (Papp) of 3 ×10⁻⁶ cm/s.

In turn, `NCCCNCCCCNC(=O)C(O)NC(=O)CCCCCCN=C(N)N` (configuration not stated) had an apparent permeability coefficient (Papp) of 38 ×10⁻⁶ cm/s.

As to `Cn1nnnc1Sc1ncnc2scc(-c3cccc(Cl)c3)c12`, the apparent permeability coefficient (Papp) came out at 134 ×10⁻⁶ cm/s.

As to `Cn1c2cc(S(C)=O)sc2c2cnn(Cc3ccccc3F)c(=O)c21` (configuration not stated), the Papp was 49 ×10⁻⁶ cm/s.

The compound `COC(Cn1cnc2c(c(-c3ccccc3)c(-c3ccccc3)n2CCc2ccccc2)c1=N)OC` came in with a Papp of 236 ×10⁻⁶ cm/s.

`CCC1=C[C@@H]2CN(C1)Cc1c([nH]c3ccccc13)[C@@](C(=O)OC)(c1cc3c(cc1OC)N(C)[C@H]1[C@@](O)(C(=O)OC)[C@H](OC(C)=O)[C@]4(CC)C=CCN5CC[C@]31[C@@H]54)C2`: the apparent permeability coefficient (Papp) was determined as 30 ×10⁻⁶ cm/s.

In turn, `N=c1c2c(-c3ccccc3)cn(Cc3ccccc3)c2ncn1CCCCCO` registered an apparent permeability (Papp) of 89 ×10⁻⁶ cm/s.

Take `CN1CCCC(=C(c2cccs2)c2cccs2)C1`: the apparent permeability coefficient (Papp) was less than 1 ×10⁻⁶ cm/s.

On to `CNc1oc(-c2cccc(Cl)c2Cl)nc1C#N`, for which the apparent permeability coefficient (Papp) is 124 ×10⁻⁶ cm/s.

In turn, `CCO[C@@H]1OC(=O)C[C@@H]1NC(=O)[C@@H]1CCCN1C(=O)[C@@H](NC(=O)c1ccc(N)c(Cl)c1)C(C)(C)C` had a Papp of 4 ×10⁻⁶ cm/s.

As for `C[C@@]12CCCCC[C@@H](Cc3ccc(O)cc31)[C@H]2N`, the Papp came out at 74 ×10⁻⁶ cm/s.

Consider `O=c1c2c(c1=O)N(CCP(=O)(O)O)CCCN2`, for which the apparent permeability coefficient (Papp) was less than 1 ×10⁻⁶ cm/s.

In the case of `[O-][n+]1cccc(/C(Cl)=N/OC[C@@H](O)CN2CCCCC2)c1`, the Papp turned out to be 2 ×10⁻⁶ cm/s.

`COC(Cn1cnc2c(c(-c3ccccc3)c(-c3ccccc3)n2Cc2ccccc2)c1=N)OC` yielded a Papp of 189 ×10⁻⁶ cm/s.

Compound `O=C(c1ccc(-c2ncc3cnc(-c4ccccc4)cn23)cc1)N1CCS(=O)(=O)CC1` yielded a Papp of 20 ×10⁻⁶ cm/s.

In turn, `C=CCN1CC[C@]23c4c5ccc(O)c4O[C@H]2[C@@H](OCCOCCOCCOCCOCCOCCOCCOC)CC[C@@]3(O)[C@H]1C5` displayed a Papp of less than 1 ×10⁻⁶ cm/s.

`NC(=O)C1=C(O)[C@@]2(O)C(=O)C3=C(O)c4c(O)cccc4C[C@H]3C[C@H]2CC1=O` yielded an apparent permeability (Papp) of 9 ×10⁻⁶ cm/s.

The compound `CN(C)c1cc2c(cc1Sc1nc3c(N)nccc3n1CCNCC(C)(C)C)OCO2` showed an apparent permeability (Papp) of 20 ×10⁻⁶ cm/s.

`N#Cc1ccnc(Nc2cc(C3CCN(C4COC4)CC3)cc(N3CCC(F)(F)C3)n2)c1` had an apparent permeability coefficient (Papp) of 133 ×10⁻⁶ cm/s.

In the case of `O=C1NC(=O)C(c2ccccc2)(c2ccccc2)N1`, the Papp was 42 ×10⁻⁶ cm/s.

Take `COc1c(C)cnc(Cn2cnc3c(Cl)nc(N)nc32)c1C`: the Papp came out at 3.17 ×10⁻⁶ cm/s.

Compound `Cn1nnnc1SCC1=C(C(=O)O)N2C(=O)[C@@H](NC(=O)[C@H](OC=O)c3ccccc3)[C@H]2SC1` yielded a Papp of less than 1 ×10⁻⁶ cm/s.

`CC(=O)Nc1ccc(C(=O)NC(C)(C)C)cc1` came in with an apparent permeability coefficient (Papp) of 2 ×10⁻⁶ cm/s.

In the case of `COC(=O)c1ccccc1O[C@@H]1O[C@H](CO[C@@H]2OC[C@@H](O)[C@H](O)[C@H]2O)[C@@H](O)[C@H](O)[C@H]1O`, the Papp is less than 1 ×10⁻⁶ cm/s.

For the compound `CO[C@@]1(NC(=O)C2SC(=C(C(N)=O)C(=O)O)S2)C(=O)N2C(C(=O)O)=C(CSc3nnnn3C)CS[C@@H]21` (some centres not stated), the Papp is less than 1 ×10⁻⁶ cm/s.

`COC(=O)C[C@@H](C(=O)OC)n1cnc2c(c(-c3ccccc3)cn2Cc2ccccc2)c1=N` displayed an apparent permeability (Papp) of 26 ×10⁻⁶ cm/s.

As to `NCCc1ccc(O)c(O)c1`, the apparent permeability coefficient (Papp) is less than 1 ×10⁻⁶ cm/s.

Take `OCCCCC#Cc1cncc(OC[C@@H]2CCN2)c1`: the Papp was less than 1 ×10⁻⁶ cm/s.

The compound `CCC(=O)N1CCN(c2ccc(-n3c(=O)ccc4cnc5ccc(-c6cnc7ccccc7c6)cc5c43)cc2C(F)(F)F)CC1` yielded an apparent permeability coefficient (Papp) of 158 ×10⁻⁶ cm/s.

`O=[N+]([O-])c1nccn1CO[C@@H](CO)[C@H](O)CO`: the Papp was less than 1 ×10⁻⁶ cm/s.

Compound `O=C(NCCO)c1cc(C(=O)NCCO)cc(C(=O)NCCO)c1` displayed a Papp of less than 1 ×10⁻⁶ cm/s.

`CCNC(=O)c1noc(-c2cc(C(C)C)c(O)cc2O)c1-c1ccc(CN2CCOCC2)cc1`: the Papp came to 117 ×10⁻⁶ cm/s.

With `Cc1ncc(COP(=O)(O)O)c(C=O)c1O`, the Papp is less than 1 ×10⁻⁶ cm/s.

On to `CCN(CC)CCNc1ccc2ncn3c4ccc(O)cc4c(=O)c1c23`, for which the Papp was 17 ×10⁻⁶ cm/s.

`Cn1nnnc1Sc1ncnc2scc(-c3ccsc3)c12`: the Papp is 173 ×10⁻⁶ cm/s.

`CC(C)(C)C(=O)OCOC(=O)C1N2C(=O)CC2S(=O)(=O)C1(C)C` (configuration not stated): the apparent permeability coefficient (Papp) was determined as 37 ×10⁻⁶ cm/s.

As for `CC1(C)S[C@@H]2[C@@H](N3C(=O)[C@@H](c4ccccc4)NC3(C)C)C(=O)N2[C@H]1C(=O)O`, the Papp was greater than 300 ×10⁻⁶ cm/s.

`CC(=O)c1cc(C(=O)N[C@@H](C)Cn2ccc(-c3ccc(C#N)c(Cl)c3)n2)[nH]n1` showed an apparent permeability (Papp) of 164 ×10⁻⁶ cm/s.

The compound `CC(C)N(C[C@H]1O[C@@H](n2cnc3c(N)ncnc32)[C@H](O)[C@@H]1O)C1CC(CCc2nc3ccc(C(C)(C)C)cc3[nH]2)C1` (some centres not stated) came in with a Papp of less than 1 ×10⁻⁶ cm/s.

`CCOC(=N)c1nc2ccc3ncnc(Nc4cc(F)c(F)cc4Cl)c3c2s1` showed a Papp of 1.2 ×10⁻⁶ cm/s.

In turn, `C[C@]12CCCN1CC1=NNC(=O)c3cc(F)cc4[nH]c2c1c34` had a Papp of 22 ×10⁻⁶ cm/s.

The compound `CCCN(CCC)C1CCc2cccc(O)c2C1` (configuration not stated) had a Papp of 88 ×10⁻⁶ cm/s.

`Cn1nnnc1Sc1ncnc2scc(-c3cccc4ccccc34)c12` yielded an apparent permeability coefficient (Papp) of 265 ×10⁻⁶ cm/s.

As to `N=c1c2c(-c3ccccc3)c(-c3ccccc3)n(Cc3ccccc3)c2ncn1CCCCCO`, the Papp was 203 ×10⁻⁶ cm/s.

In turn, `CC(C)C[C@H](CO)Nc1nc(S[C@@H](C)c2ccccc2)nc2nc(N)sc12` displayed a Papp of 244 ×10⁻⁶ cm/s.

Compound `Oc1ccc(/C=C/c2cc(O)cc(O)c2)cc1` had an apparent permeability coefficient (Papp) of 5 ×10⁻⁶ cm/s.

As to `Cc1ccccc1NC(=O)Nc1ccc(CC(=O)N(C)[C@@H](CC(C)C)C(=O)NCC[C@H](NC(=O)[C@@H]2CCCN2S(=O)(=O)c2cc(Cl)cc(Cl)c2)C(=O)O)cc1`, the Papp turned out to be 5 ×10⁻⁶ cm/s.

The compound `COc1ccc(Cl)cc1NC(=O)c1sc2nc3c(cc2c1N)N1CCC3CC1` gave a Papp of less than 1 ×10⁻⁶ cm/s.
